According to patent publication US9833497B2, “Human originated EGF domain proteins and use of the same” (CHENGDU SOURCEBIO LIMITED-LIABILITY COMPANY, priority 2013, dated 2017):

Experiments:
Type in all cases: cell-based
E. coli DH5α = test: Antibacterial activity: MIC and growth curve against E. coli DH5α in 96-well plate; details: minimal inhibitory concentration against E. coli DH5α; 96-well plate, 5×10^5 CFU/mL, 37° C., judged after 8 h
Summary of the method: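 MIC taken as lowest protein level with no bacterial growth, tracked by A600 every 30 min during 37 °C, 175 rpm culture. Two-fold protein series 50-12.5 μg/mL final, triplicate wells, against 5×10^5 CFU/mL of LB-washed mid-log cells.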

E. coli BL21 = test: MIC against Gram-negative bacteria: E. coli BL21; details: 5×10^5 CFU/mL
Summary of the method: (§1)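 Broth microdilution, LB medium, final inoculum 5×10^5 CFU/mL from McFarland 0.5 cultures. Recombinant human EGF domain proteins tested in two-fold steps, n=3. MIC: lowest concentration, no growth.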

Pseudomonas aeruginosa = test: MIC against Gram-negative bacteria: Pseudomonas aeruginosa; details: 5×10^5 CFU/mL
Summary of the method: as §1

Klebsiella pneumonia = test: MIC against Gram-negative bacteria: Klebsiella pneumonia; details: 5×10^5 CFU/mL
Summary of the method: as §1

Enterobacter cloacae = test: MIC against Gram-negative bacteria: Enterobacter cloacae; details: 5×10^5 CFU/mL
Summary of the method: as §1

Aeromonas hydrophila = test: MIC against Gram-negative bacteria: Aeromonas hydrophila; details: 5×10^5 CFU/mL
Summary of the method: as §1

Citrobacter diversus = test: MIC against Gram-negative bacteria: Citrobacter diversus; details: 5×10^5 CFU/mL
Summary of the method: as §1

Moraxella catarrhalis = test: MIC against Gram-negative bacteria: Moraxella catarrhalis; details: 5×10^5 CFU/mL
Summary of the method: as §1

Proteus mirabilis = test: MIC against Gram-negative bacteria: Proteus mirabilis; details: 5×10^5 CFU/mL
Summary of the method: as §1

Proteus vulgaris = test: MIC against Gram-negative bacteria: Proteus vulgaris; details: 5×10^5 CFU/mL
Summary of the method: as §1

Serratia marcescens = test: MIC against Gram-negative bacteria: Serratia marcescens; details: 5×10^5 CFU/mL
Summary of the method: as §1

[1] = E. coli BL21, 96-well plate, 37° C., 10 h
[2] = Pseudomonas aeruginosa, 96-well plate, 37° C., 10 h
[3] = Klebsiella pneumonia, 96-well plate, 37° C., 10 h
[4] = Enterobacter cloacae, 96-well plate, 37° C., 10 h
[5] = Aeromonas hydrophila, 96-well plate, 37° C., 10 h
[6] = Citrobacter diversus, 96-well plate, 37° C., 10 h
[7] = Moraxella catarrhalis, 96-well plate, 37° C., 10 h
[8] = Proteus mirabilis, 96-well plate, 37° C., 10 h
[9] = Proteus vulgaris, 96-well plate, 37° C., 10 h
[10] = Serratia marcescens, 96-well plate, 37° C., 10 h
[11] = E. coli BL21, 10 h cultivation at 37° C.
[12] = Pseudomonas aeruginosa, 10 h cultivation at 37° C.
[13] = Klebsiella pneumonia, 10 h cultivation at 37° C.
[14] = Enterobacter cloacae, 10 h cultivation at 37° C.
[15] = Aeromonas hydrophila, 10 h cultivation at 37° C.
[16] = Citrobacter diversus, 10 h cultivation at 37° C.
[17] = Moraxella catarrhalis, 10 h cultivation at 37° C.
[18] = Proteus mirabilis, 10 h cultivation at 37° C.
[19] = Proteus vulgaris, 10 h cultivation at 37° C.
[20] = Serratia marcescens, 10 h cultivation at 37° C.

Q: With “PRT47 (CTCSGHANICHLHTGKCFCTTKGIKGDQCQLCDSENRYVGNPLRGTCYY; listed as Homo sapiens)” as the substance, how does the MIC (E. coli DH5α) read?
A: The MIC was 12.5 µg/mL.

Q: And the “MIC (μg/mL) E. coli BL21” value (E. coli BL21; [1])?
A: Its value is 25 µg/mL.

Q: And the “MIC (μg/mL) P. aeruginosa” value (Pseudomonas aeruginosa; [2])?
A: Its value is 12.5 µg/mL.

Q: And the “MIC (μg/mL) K. pneumonia” value (Klebsiella pneumonia; [3])?
A: The value was 12.5 µg/mL.

Q: What about the “MIC (μg/mL) E. cloacae” value (Enterobacter cloacae; [4]) of the same substance?
A: The value was 25 µg/mL.

Q: And the “MIC (μg/mL) A. hydrophila” value (Aeromonas hydrophila; [5])?
A: Its value is 12.5 µg/mL.

Q: And the “MIC (μg/mL) C. diversus” value (Citrobacter diversus; [6])?
A: The value was 50 µg/mL.

Q: What about the “MIC (μg/mL) M. catarrhalis” value (Moraxella catarrhalis; [7]) of the same substance?
A: The value was 12.5 µg/mL.

Q: What about the “MIC (μg/mL) P. mirabilis” value (Proteus mirabilis; [8]) of the same substance?
A: Its value is 25 µg/mL.

Q: And the “MIC (μg/mL) P. vulgaris” value (Proteus vulgaris; [9])?
A: The value was 50 µg/mL.

Q: What about the “MIC (μg/mL) S. marcescens” value (Serratia marcescens; [10]) of the same substance?
A: Its value is 12.5 µg/mL.

Q: How did the MIC (E. coli DH5α) turn out when “PRT117 (DVDECALGRSPCAQGCTNTDGSFHCSCEEGYVLAGEDGTQCQ; listed as Homo sapiens)” was run?
A: Its MIC is 12.5 µg/mL.

Q: And the “MIC (μg/mL) E. coli BL21” value (E. coli BL21; [1])?
A: The value was 12.5 µg/mL.

Q: What about the “MIC (μg/mL) P. aeruginosa” value (Pseudomonas aeruginosa; [2]) of the same substance?
A: The value was 25 µg/mL.

Q: What about the “MIC (μg/mL) K. pneumonia” value (Klebsiella pneumonia; [3]) of the same substance?
A: Its value is 12.5 µg/mL.

Q: What about the “MIC (μg/mL) E. cloacae” value (Enterobacter cloacae; [4]) of the same substance?
A: The value was 25 µg/mL.

Q: And the “MIC (μg/mL) A. hydrophila” value (Aeromonas hydrophila; [5])?
A: The value was 12.5 µg/mL.

Q: And the “MIC (μg/mL) C. diversus” value (Citrobacter diversus; [6])?
A: The value was 25 µg/mL.

Q: What about the “MIC (μg/mL) M. catarrhalis” value (Moraxella catarrhalis; [7]) of the same substance?
A: The value was 12.5 µg/mL.

Q: And the “MIC (μg/mL) P. mirabilis” value (Proteus mirabilis; [8])?
A: Its value is 25 µg/mL.

Q: And the “MIC (μg/mL) P. vulgaris” value (Proteus vulgaris; [9])?
A: Its value is 12.5 µg/mL.

Q: What about the “MIC (μg/mL) S. marcescens” value (Serratia marcescens; [10]) of the same substance?
A: Its value is 12.5 µg/mL.

Q: What does the source list for “PRT1389 (PEEQCIDPTCFGHGTCIMGVCICVPGYKGEICE; listed as Homo sapiens)”?
A: MIC (E. coli DH5α): 25 µg/mL; MIC against E. coli BL21 (E. coli BL21; [11]): 12.5 µg/mL; MIC against P. aeruginosa (Pseudomonas aeruginosa; [12]): 25 µg/mL; MIC against K. pneumonia (Klebsiella pneumonia; [13]): 12.5 µg/mL; MIC against E. cloacae (Enterobacter cloacae; [14]): 25 µg/mL; MIC against A. hydrophila (Aeromonas hydrophila; [15]): 12.5 µg/mL; MIC against C. diversus (Citrobacter diversus; [16]): 12.5 µg/mL; MIC against M. catarrhalis (Moraxella catarrhalis; [17]): 12.5 µg/mL; MIC against P. mirabilis (Proteus mirabilis; [18]): 12.5 µg/mL; MIC against P. vulgaris (Proteus vulgaris; [19]): 25 µg/mL; MIC against S. marcescens (Serratia marcescens; [20]): 12.5 µg/mL

Q: What does the source list for “PRT245 (DIDECASGKVICPYNRRCVNTFGSYYCKCHIGFELQYIS; listed as Homo sapiens)”?
A: MIC (E. coli DH5α): 12.5 µg/mL; MIC (μg/mL) E. coli BL21 (E. coli BL21; [11]): 50 µg/mL; MIC (μg/mL) P. aeruginosa (Pseudomonas aeruginosa; P. aeruginosa, 10 h cultivation at 37° C.): 12.5 µg/mL; MIC (μg/mL) K. pneumonia (Klebsiella pneumonia; K. pneumonia, 10 h cultivation at 37° C.): 12.5 µg/mL; MIC (μg/mL) E. cloacae (Enterobacter cloacae; E. cloacae, 10 h cultivation at 37° C.): 12.5 µg/mL; MIC (μg/mL) A. hydrophila (Aeromonas hydrophila; A. hydrophila, 10 h cultivation at 37° C.): 12.5 µg/mL; MIC (μg/mL) C. diversus (Citrobacter diversus; C. diversus, 10 h cultivation at 37° C.): 25 µg/mL; MIC (μg/mL) M. catarrhalis (Moraxella catarrhalis; M. catarrhalis, 10 h cultivation at 37° C.): 12.5 µg/mL; MIC (μg/mL) P. mirabilis (Proteus mirabilis; P. mirabilis, 10 h cultivation at 37° C.): 25 µg/mL; MIC (μg/mL) P. vulgaris (Proteus vulgaris; P. vulgaris, 10 h cultivation at 37° C.): 12.5 µg/mL; MIC (μg/mL) S. marcescens (Serratia marcescens; S. marcescens, 10 h cultivation at 37° C.): 25 µg/mL

Q: With “PRT467 (ECPGGCRNGGFCNERRICECPDGFHGPHCE; listed as Homo sapiens)” as the substance, how does the MIC (E. coli DH5α) read?
A: Its MIC is 12.5 µg/mL.

Q: What about the “MIC against E. coli BL21” value (E. coli BL21; 96-well plate, 37° C., 10 h) of the same substance?
A: Its value is 12.5 µg/mL.

Q: And the “MIC against P. aeruginosa” value (Pseudomonas aeruginosa; 96-well plate, 37° C., 10 h)?
A: The value was 12.5 µg/mL.

Q: And the “MIC against K. pneumonia” value (Klebsiella pneumonia; 96-well plate, 37° C., 10 h)?
A: The value was 25 µg/mL.

Q: And the “MIC against E. cloacae” value (Enterobacter cloacae; 96-well plate, 37° C., 10 h)?
A: The value was 12.5 µg/mL.

Q: What about the “MIC against A. hydrophila” value (Aeromonas hydrophila; 96-well plate, 37° C., 10 h) of the same substance?
A: The value was 25 µg/mL.

Q: And the “MIC against C. diversus” value (Citrobacter diversus; 96-well plate, 37° C., 10 h)?
A: Its value is 50 µg/mL.

Q: What about the “MIC against M. catarrhalis” value (Moraxella catarrhalis; 96-well plate, 37° C., 10 h) of the same substance?
A: Its value is 25 µg/mL.

Q: And the “MIC against P. mirabilis” value (Proteus mirabilis; 96-well plate, 37° C., 10 h)?
A: The value was 12.5 µg/mL.

Q: And the “MIC against P. vulgaris” value (Proteus vulgaris; 96-well plate, 37° C., 10 h)?
A: Its value is 25 µg/mL.

Q: What about the “MIC against S. marcescens” value (Serratia marcescens; 96-well plate, 37° C., 10 h) of the same substance?
A: The value was 50 µg/mL.

Q: How did the MIC (E. coli DH5α) turn out when “PRT1397 (PMNQCIDPSCGGHGSCIDGNCVCSAGYKGEHCE; listed as Homo sapiens)” was run?
A: The MIC was 50 µg/mL.

Q: And the “MIC against E. coli BL21” value (E. coli BL21; [11])?
A: Its value is 25 µg/mL.

Q: What about the “MIC against P. aeruginosa” value (Pseudomonas aeruginosa; [12]) of the same substance?
A: The value was 12.5 µg/mL.

Q: What about the “MIC against K. pneumonia” value (Klebsiella pneumonia; [13]) of the same substance?
A: The value was 50 µg/mL.

Q: And the “MIC against E. cloacae” value (Enterobacter cloacae; [14])?
A: The value was 12.5 µg/mL.

Q: And the “MIC against A. hydrophila” value (Aeromonas hydrophila; [15])?
A: Its value is 50 µg/mL.

Q: And the “MIC against C. diversus” value (Citrobacter diversus; [16])?
A: The value was 25 µg/mL.

Q: What about the “MIC against M. catarrhalis” value (Moraxella catarrhalis; [17]) of the same substance?
A: The value was 12.5 µg/mL.

Q: And the “MIC against P. mirabilis” value (Proteus mirabilis; [18])?
A: Its value is 25 µg/mL.

Q: And the “MIC against P. vulgaris” value (Proteus vulgaris; [19])?
A: The value was 50 µg/mL.

Q: And the “MIC against S. marcescens” value (Serratia marcescens; [20])?
A: Its value is 25 µg/mL.

Q: How did the MIC (E. coli DH5α) turn out when “PRT481 (EITACSSSPCFHDGTCVLDKAGSYKCACLAGYTGQRCE; listed as Homo sapiens)” was run?
A: The MIC was 25 µg/mL.

Q: And the “MIC against E. coli BL21” value (E. coli BL21; 96-well plate, 37° C., 10 h)?
A: Its value is 12.5 µg/mL.

Q: And the “MIC against P. aeruginosa” value (Pseudomonas aeruginosa; 96-well plate, 37° C., 10 h)?
A: The value was 25 µg/mL.

Q: What about the “MIC against K. pneumonia” value (Klebsiella pneumonia; 96-well plate, 37° C., 10 h) of the same substance?
A: Its value is 50 µg/mL.

Q: What about the “MIC against E. cloacae” value (Enterobacter cloacae; 96-well plate, 37° C., 10 h) of the same substance?
A: The value was 12.5 µg/mL.

Q: And the “MIC against A. hydrophila” value (Aeromonas hydrophila; 96-well plate, 37° C., 10 h)?
A: Its value is 50 µg/mL.

Q: And the “MIC against C. diversus” value (Citrobacter diversus; 96-well plate, 37° C., 10 h)?
A: The value was 12.5 µg/mL.

Q: And the “MIC against M. catarrhalis” value (Moraxella catarrhalis; 96-well plate, 37° C., 10 h)?
A: The value was 50 µg/mL.

Q: And the “MIC against P. mirabilis” value (Proteus mirabilis; 96-well plate, 37° C., 10 h)?
A: Its value is 12.5 µg/mL.

Q: What about the “MIC against P. vulgaris” value (Proteus vulgaris; 96-well plate, 37° C., 10 h) of the same substance?
A: Its value is 50 µg/mL.

Q: And the “MIC against S. marcescens” value (Serratia marcescens; 96-well plate, 37° C., 10 h)?
A: The value was 12.5 µg/mL.
